7 compounds from ChEMBL document CHEMBL1145242, “EB1627: a soluble prodrug of the potent anticancer cyanoguanidine CHS828” (Bioorg Med Chem Lett, 2005) can be followed below.

One may read the IC50 as the concentration that inhibits the measured activity by half. By half-life is commonly meant the time needed for the level to fall by half in the phase considered. For orientation: solubility means the concentration that dissolves in the medium under given conditions. Low values mean a poorly soluble substance, high ones a readily soluble substance.

The structures appear in SMILES notation. In brackets after ≈: the same amount, converted by molar mass. Some results are limits rather than exact numbers.

The first data set in a line: Inhibition of NYH Cell line. Type of data set: functional, cell-based. Particulars: Homo sapiens.
In the case of `COCCOCCOC(=O)OC[n+]1ccc(N/C(=N/CCCCCCOc2ccc(Cl)cc2)NC#N)cc1.[Cl-]`, half-maximal inhibition (IC50) was put at 0.631 nM.
In turn, `CC(C)[C@@H](N)C(=O)OC[n+]1ccc(N/C(=N/CCCCCCOc2ccc(Cl)cc2)NC#N)cc1` gave a half-maximal inhibitory concentration (IC50) of 5.01 nM.
Still for that read-out and setting: the figure for `COCCOCCOCCOC(=O)OC[n+]1ccc(N/C(=N/CCCCCCOc2ccc(Cl)cc2)NC#N)cc1.[Cl-]` is 0.501 nM.
On the same count and under the same terms, under `Cl.N#CN/C(=N\CCCCCCOc1ccc(Cl)cc1)Nc1cc[n+](COC(=O)OCCCCCCCCCN)cc1.[Cl-]` stands 0.398 nM.
Same read-out and setting: under `Cl.N#CN/C(=N\CCCCCCOc1ccc(Cl)cc1)Nc1cc[n+](COC(=O)NCCCN)cc1.[Cl-]` stands 15.8 nM; under `N#CN=C(NCCCCCCOc1ccc(Cl)cc1)Nc1ccncc1` [CHS-828], 0.501 nM.
The compound `COCCOCCOCCOCCOC(=O)OC[n+]1ccc(N/C(=N/C#N)NCCCCCCOc2ccc(Cl)cc2)cc1.[Cl-]` [TEGLARINAD CHLORIDE] showed an IC50 of 0.794 nM.

Another data set in a line: Half life value at pH-7.4.
Conditions: not given
The class given is ADME.
`COCCOCCOC(=O)OC[n+]1ccc(N/C(=N/CCCCCCOc2ccc(Cl)cc2)NC#N)cc1.[Cl-]` had a half-life above 240 min.
The same measure, in the same setting: under `COCCOCCOCCOC(=O)OC[n+]1ccc(N/C(=N/CCCCCCOc2ccc(Cl)cc2)NC#N)cc1.[Cl-]` stands above 240 min; under `Cl.N#CN/C(=N\CCCCCCOc1ccc(Cl)cc1)Nc1cc[n+](COC(=O)OCCCCCCCCCN)cc1.[Cl-]`, above 240 min.
For `Cl.N#CN/C(=N\CCCCCCOc1ccc(Cl)cc1)Nc1cc[n+](COC(=O)NCCCN)cc1.[Cl-]`, the half-life was above 240 min.
Still for that read-out and setting: under `COCCOCCOCCOCCOC(=O)OC[n+]1ccc(N/C(=N/C#N)NCCCCCCOc2ccc(Cl)cc2)cc1.[Cl-]` [TEGLARINAD CHLORIDE] stands above 240 min.

Another data set is described as follows: Half life value in human serum. Type of data set: ADME, cell-free.
Conditions: not given
Take `COCCOCCOC(=O)OC[n+]1ccc(N/C(=N/CCCCCCOc2ccc(Cl)cc2)NC#N)cc1.[Cl-]`: the half-life was 27 min.
Still for that read-out and setting: the figure for `COCCOCCOCCOC(=O)OC[n+]1ccc(N/C(=N/CCCCCCOc2ccc(Cl)cc2)NC#N)cc1.[Cl-]` is 30 min; for `Cl.N#CN/C(=N\CCCCCCOc1ccc(Cl)cc1)Nc1cc[n+](COC(=O)OCCCCCCCCCN)cc1.[Cl-]` it is 15 min; for `Cl.N#CN/C(=N\CCCCCCOc1ccc(Cl)cc1)Nc1cc[n+](COC(=O)NCCCN)cc1.[Cl-]` it is above 240 min.
On the same count and under the same terms, the figure for `COCCOCCOCCOCCOC(=O)OC[n+]1ccc(N/C(=N/C#N)NCCCCCCOc2ccc(Cl)cc2)cc1.[Cl-]` [TEGLARINAD CHLORIDE] is 25 min.

A short description of a further data set: Solubility at pH-5.5.
Conditions: not given
Type of data set: physicochemical.
As for `COCCOCCOC(=O)OC[n+]1ccc(N/C(=N/CCCCCCOc2ccc(Cl)cc2)NC#N)cc1.[Cl-]`, the solubility came out at 0.034 mg/mL.
`COCCOCCOCCOC(=O)OC[n+]1ccc(N/C(=N/CCCCCCOc2ccc(Cl)cc2)NC#N)cc1.[Cl-]` showed a solubility of 1.2 mg/mL.
Still for that read-out and setting: the figure for `Cl.N#CN/C(=N\CCCCCCOc1ccc(Cl)cc1)Nc1cc[n+](COC(=O)OCCCCCCCCCN)cc1.[Cl-]` is above 1.2 mg/mL.
The compound `Cl.N#CN/C(=N\CCCCCCOc1ccc(Cl)cc1)Nc1cc[n+](COC(=O)NCCCN)cc1.[Cl-]` returned a solubility above 1.2 mg/mL.
Take `N#CN=C(NCCCCCCOc1ccc(Cl)cc1)Nc1ccncc1` [CHS-828]: the solubility amounted to 0.002 mg/mL (≈ 5.38 µM).
The same measure, in the same setting: under `COCCOCCOCCOCCOC(=O)OC[n+]1ccc(N/C(=N/C#N)NCCCCCCOc2ccc(Cl)cc2)cc1.[Cl-]` [TEGLARINAD CHLORIDE] stands above 1.2 mg/mL.

The next data set can be described thus: Solubility at pH-7.4. Type of data set: physicochemical.
Conditions: not given
`COCCOCCOC(=O)OC[n+]1ccc(N/C(=N/CCCCCCOc2ccc(Cl)cc2)NC#N)cc1.[Cl-]` displayed a solubility of 0.014 mg/mL.
The same measure, in the same setting: under `COCCOCCOCCOC(=O)OC[n+]1ccc(N/C(=N/CCCCCCOc2ccc(Cl)cc2)NC#N)cc1.[Cl-]` stands 0.083 mg/mL; under `Cl.N#CN/C(=N\CCCCCCOc1ccc(Cl)cc1)Nc1cc[n+](COC(=O)OCCCCCCCCCN)cc1.[Cl-]`, 0.038 mg/mL.
Still for that read-out and setting: the figure for `Cl.N#CN/C(=N\CCCCCCOc1ccc(Cl)cc1)Nc1cc[n+](COC(=O)NCCCN)cc1.[Cl-]` is 0.25 mg/mL; for `N#CN=C(NCCCCCCOc1ccc(Cl)cc1)Nc1ccncc1` [CHS-828] it is 0.0005 mg/mL (≈ 1.34 µM).
On the same count and under the same terms, the figure for `COCCOCCOCCOCCOC(=O)OC[n+]1ccc(N/C(=N/C#N)NCCCCCCOc2ccc(Cl)cc2)cc1.[Cl-]` [TEGLARINAD CHLORIDE] is 0.12 mg/mL.
